Measured values published in US20220323406A1, “METHODS AND COMPOSITIONS FOR DIFFERENTIATING STEM CELLS” (Massachusetts Institute of Technology, priority 2019, published 2022).

Assays:
[1] = test system: ENR+CD organoids (ISC to Paneth cell differentiation); test: Primary screen: CCh-stimulated lysozyme secretion LYZ.S, 2.5-D 384-well ENR+CD organoid differentiation; assay type: cell-based, mouse; conditions: primary screen
Excerpt: (§1) High-throughput screening.

ENR+CD organoids = test: Primary screen: ATP (CellTiter-Glo 3D, CTG) cell number/viability, 2.5-D 384-well ENR+CD organoids; conditions: primary screen;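 note: compounds given at plating and again on day 3 over a 6-day differentiation from ENR+CV stem-cell-enriched precursors, ATP measured on day 6, plate median as control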
[2] = test system: ENR+CD organoids (ISC to Paneth cell differentiation); test: Primary screen: basal (non-stimulated) lysozyme secretion LYZ.NS, 2.5-D 384-well ENR+CD organoid differentiation; assay type: cell-based, mouse; conditions: primary screen; for Z.LYZ.NS: standard z score
Excerpt: as §1

| SMILES | Dose.FC.LYZ.S ([1]; dose 0.08 uM) [log2 fold change] | Dose.FC.LYZ.S ([1]; dose 0.40 uM) [log2 fold change] | Dose.FC.LYZ.S ([1]; dose 2.00 uM) [log2 fold change] | Dose.FC.LYZ.S ([1]; dose 10.00 uM) [log2 fold change] | Dose.FC.CTG (ENR+CD organoids; dose 0.08 uM) [log2 fold change] | Dose.FC.CTG (ENR+CD organoids; dose 0.40 uM) [log2 fold change] | Dose.FC.CTG (ENR+CD organoids; dose 2.00 uM) [log2 fold change] | Dose.FC.CTG (ENR+CD organoids; dose 10.00 uM) [log2 fold change] | Dose.FC.LYZ.NS ([2]; dose 0.08 uM) [log2 fold change] | Z.LYZ.NS (standard z score) ([2]; dose 0.08 uM) | Dose.FC.LYZ.NS ([2]; dose 0.40 uM) [log2 fold change] | Z.LYZ.NS (standard z score) ([2]; dose 0.40 uM) | Dose.FC.LYZ.NS ([2]; dose 2.00 uM) [log2 fold change] | Z.LYZ.NS (standard z score) ([2]; dose 2.00 uM) | Dose.FC.LYZ.NS ([2]; dose 10.00 uM) [log2 fold change] | Z.LYZ.NS (standard z score) ([2]; dose 10.00 uM) | further results |
| --- | --- | --- | --- | --- | --- | --- | --- | --- | --- | --- | --- | --- | --- | --- | --- | --- | --- |
| Cc1ccccc1C(=O)Nc1ccc(C(=O)N2CCCC(O)c3cc(Cl)ccc32)c(C)c1 (centres unmarked) [Tolvaptan] | 0.086 | 0.031 | −0.048 | −0.150 | 0.095 | −0.008 | −0.094 | −0.104 | 0.049 | 0.429 | −0.041 | −0.355 | −0.023 | −0.204 | −0.093 | −0.807 | – |
| C[C@@H]1CCN(C(=O)CC#N)C[C@@H]1N(C)c1ncnc2[nH]ccc12 [Tofacitinib (CP-690550, Tasocitinib)] | 0.022 | 0.010 | 0.025 | 0.010 | 0.130 | 0.249 | 0.117 | 0.236 | −0.017 | −0.146 | −0.015 | −0.132 | −0.007 | −0.061 | −0.004 | −0.036 | Z.CTG (standard z score) (ENR+CD organoids; dose 0.08 uM): 0.312; Z.CTG (standard z score) (ENR+CD organoids; dose 0.40 uM): 0.595; Z.CTG (standard z score) (ENR+CD organoids; dose 2.00 uM): 0.278; Z.CTG (standard z score) (ENR+CD organoids; dose 10.00 uM): 0.563 |
| O=C(/C=C/c1ccc(O)c(O)c1)OCCc1ccccc1 [Caffeic Acid Phenethyl Ester] | 0.189 | 0.070 | −0.021 | −0.117 | 0.262 | −0.011 | −0.064 | −0.511 | 0.053 | – | 0.167 | – | 0.090 | – | −0.026 | – | Z.LYZ.NS ([2]; dose 0.08 uM): 0.465; Z.LYZ.NS ([2]; dose 0.40 uM): 1.453; Z.LYZ.NS ([2]; dose 2.00 uM): 0.781; Z.LYZ.NS ([2]; dose 10.00 uM): −0.227 |
| CCN1CCC[C@H]1CNC(=O)c1cc(S(N)(=O)=O)ccc1OC [Levosulpiride] | – | – | – | – | – | – | – | – | – | 0.114 | – | 0.205 | – | 0.441 | – | −0.240 | Dose.FC.LYZ.S (log2 fold change) ([1]; dose 0.08 uM): −0.017; Dose.FC.LYZ.S (log2 fold change) ([1]; dose 0.40 uM): 0.128; Dose.FC.LYZ.S (log2 fold change) ([1]; dose 2.00 uM): 0.124; Dose.FC.LYZ.S (log2 fold change) ([1]; dose 10.00 uM): −0.026; Dose.FC.CTG (log2 fold change) (ENR+CD organoids; dose 0.08 uM): −0.043; Dose.FC.CTG (log2 fold change) (ENR+CD organoids; dose 0.40 uM): −0.006; Dose.FC.CTG (log2 fold change) (ENR+CD organoids; dose 2.00 uM): 0.031; Dose.FC.CTG (log2 fold change) (ENR+CD organoids; dose 10.00 uM): 0.090; Dose.FC.LYZ.NS (log2 fold change) ([2]; dose 0.08 uM): 0.013; Dose.FC.LYZ.NS (log2 fold change) ([2]; dose 0.40 uM): 0.024; Dose.FC.LYZ.NS (log2 fold change) ([2]; dose 2.00 uM): 0.051; Dose.FC.LYZ.NS (log2 fold change) ([2]; dose 10.00 uM): −0.028 |
